Assay results taken from patent US10800791B2, “Triazole ACC inhibitors and uses thereof” (Gilead Apollo, LLC, priority 2015, dated 2020).
pIC50: −log10 of the molar value. In brackets after ≈: the same amount, converted by molar mass. Where two headings read alike, the source gives them in different places.

How the values were obtained:
C. parapsilosis = experiment: Antifungal Activity Assay (broth microtiter MIC), C. parapsilosis; format: cell-based, Candida parapsilosis; settings: Lodderomyces parapsilosis, ATCC22019, 48 h
Method in brief: (§1)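 CLSI M27-A3 broth microdilution in RPMI 1640+MOPS, final inoculum 2.5×10^3 CFU/mL from overnight Sabouraud cultures grown at 35 °C. MIC read visually at 48 h against growth control.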

[1] = tested on: Fusarium virguliforme (Fv); experiment: Growth inhibition assay of fungal pathogens, Fv; format: cell-based; settings: 48 h
Description: (§2) Compounds of the present invention were evaluated in a growth inhibition assay to determine the ability to control the growth of fungal pathogens, such as Botrtyis cinerea (Bc), Collectotrichum graminicola (Cg), Diplodia maydis (Dm), Fusarium moniliforme (Fm), Fusarium virguliforme (Fv), Phytophthora capsici (Pc), Rhizoctonia solani (Rs), and Septoria tritici (St).
(§3) Compounds to be tested were dissolved in DMSO at 2.5 mg/ml to produce compound stock solutions (“stocks”). Stocks were diluted with DMSO by a five-fold dilution in a 96-well stock plate, and two sets of final concentrations of 50, 10, and 2 ppm or 2, 0.4, and 0.08 ppm were obtained in vitro. A set of positive controls was also prepared, with various concentrations of Soraphen (2, 0.4, and 0.08 ppm), Metalaxyl (1.1, 0.22, and 0.04 ppm), and Metconazole (2, 0.4, and 0.08 ppm or 0.2, 0.04, and 0.008 ppm) after the five-fold dilutions. Negative controls on each plate included 2% DMSO, water, and a blank (media+2% DMSO).
(§4) Fungal spores were isolated from previously sub-cultured plates of Botrtyis cinerea (Bc), Collectotrichum graminicola (Cg), Diplodia maydis (Dm), Fusarium moniliforme (Fm), Fusarium virguliforme (Fv), Phytophthora capsici (Pc), and Septoria tritici (St). The isolated spores were diluted to individual concentrations with a 17% V8 liquid media. For Rhizoctonia solani (Rs) and Pythium irregulare, 1.5 mm mycelial plugs were used in place of spores and/4 Potato Dextrose Broth (PDB) was used for dilution. The spore concentrations and plug sizes were based on growth curves generated at 48 hours for each pathogen.
(§5) In a second 96-well plate, the spores or mycelial plugs, media, diluted compound solutions, and controls were combined. Once the compound was added, a true final concentration of compound in each well was measured by an OD600 reading, which adjusted for any compound precipitation that might have occurred in the well. Plate readings were repeated at both 24 and 48 hours. The blank negative control was used as a background subtraction. Additional visual ratings were performed at both 24 and 48 hours for checking on precipitation and confirming efficacy. Visual and OD600 ratings of the compounds at 48 hours were compared to the 2% DMSO negative control, and the percent of pathogen growth inhibition was determined based on those values.

[2] = tested on: Fusarium moniliforme (Fm); experiment: Growth inhibition assay of fungal pathogens, Fm; format: cell-based; settings: Fusarium verticillioides, 48 h, read-out: Concentration at 90% Inhibition Fm
Description: as §2, §3, §4, §5

Septoria tritici (St) = experiment: Growth inhibition assay of fungal pathogens, St; format: cell-based; settings: Zymoseptoria tritici, 48 h, growth inhibition at 48 hours vs 2% DMSO control
Description: as §2, §3, §4, §5

[3] = tested on: Collectotrichum graminicola (Cg); experiment: Growth inhibition assay of fungal pathogens, Cg; format: cell-based; settings: 48 h, growth inhibition at 48 hours vs 2% DMSO control
Description: as §2, §3, §4, §5

human (hACC2) = human (hACC2) (Homo sapiens, UniProt O00763); experiment: In vitro ACC inhibition assay (ADP-Glo), hACC2; format: biochemical; settings: 5 nM ACC2, 20 μM ATP, 20 μM acetyl-CoA
human (hACC2), sequence (O00763 whole entry): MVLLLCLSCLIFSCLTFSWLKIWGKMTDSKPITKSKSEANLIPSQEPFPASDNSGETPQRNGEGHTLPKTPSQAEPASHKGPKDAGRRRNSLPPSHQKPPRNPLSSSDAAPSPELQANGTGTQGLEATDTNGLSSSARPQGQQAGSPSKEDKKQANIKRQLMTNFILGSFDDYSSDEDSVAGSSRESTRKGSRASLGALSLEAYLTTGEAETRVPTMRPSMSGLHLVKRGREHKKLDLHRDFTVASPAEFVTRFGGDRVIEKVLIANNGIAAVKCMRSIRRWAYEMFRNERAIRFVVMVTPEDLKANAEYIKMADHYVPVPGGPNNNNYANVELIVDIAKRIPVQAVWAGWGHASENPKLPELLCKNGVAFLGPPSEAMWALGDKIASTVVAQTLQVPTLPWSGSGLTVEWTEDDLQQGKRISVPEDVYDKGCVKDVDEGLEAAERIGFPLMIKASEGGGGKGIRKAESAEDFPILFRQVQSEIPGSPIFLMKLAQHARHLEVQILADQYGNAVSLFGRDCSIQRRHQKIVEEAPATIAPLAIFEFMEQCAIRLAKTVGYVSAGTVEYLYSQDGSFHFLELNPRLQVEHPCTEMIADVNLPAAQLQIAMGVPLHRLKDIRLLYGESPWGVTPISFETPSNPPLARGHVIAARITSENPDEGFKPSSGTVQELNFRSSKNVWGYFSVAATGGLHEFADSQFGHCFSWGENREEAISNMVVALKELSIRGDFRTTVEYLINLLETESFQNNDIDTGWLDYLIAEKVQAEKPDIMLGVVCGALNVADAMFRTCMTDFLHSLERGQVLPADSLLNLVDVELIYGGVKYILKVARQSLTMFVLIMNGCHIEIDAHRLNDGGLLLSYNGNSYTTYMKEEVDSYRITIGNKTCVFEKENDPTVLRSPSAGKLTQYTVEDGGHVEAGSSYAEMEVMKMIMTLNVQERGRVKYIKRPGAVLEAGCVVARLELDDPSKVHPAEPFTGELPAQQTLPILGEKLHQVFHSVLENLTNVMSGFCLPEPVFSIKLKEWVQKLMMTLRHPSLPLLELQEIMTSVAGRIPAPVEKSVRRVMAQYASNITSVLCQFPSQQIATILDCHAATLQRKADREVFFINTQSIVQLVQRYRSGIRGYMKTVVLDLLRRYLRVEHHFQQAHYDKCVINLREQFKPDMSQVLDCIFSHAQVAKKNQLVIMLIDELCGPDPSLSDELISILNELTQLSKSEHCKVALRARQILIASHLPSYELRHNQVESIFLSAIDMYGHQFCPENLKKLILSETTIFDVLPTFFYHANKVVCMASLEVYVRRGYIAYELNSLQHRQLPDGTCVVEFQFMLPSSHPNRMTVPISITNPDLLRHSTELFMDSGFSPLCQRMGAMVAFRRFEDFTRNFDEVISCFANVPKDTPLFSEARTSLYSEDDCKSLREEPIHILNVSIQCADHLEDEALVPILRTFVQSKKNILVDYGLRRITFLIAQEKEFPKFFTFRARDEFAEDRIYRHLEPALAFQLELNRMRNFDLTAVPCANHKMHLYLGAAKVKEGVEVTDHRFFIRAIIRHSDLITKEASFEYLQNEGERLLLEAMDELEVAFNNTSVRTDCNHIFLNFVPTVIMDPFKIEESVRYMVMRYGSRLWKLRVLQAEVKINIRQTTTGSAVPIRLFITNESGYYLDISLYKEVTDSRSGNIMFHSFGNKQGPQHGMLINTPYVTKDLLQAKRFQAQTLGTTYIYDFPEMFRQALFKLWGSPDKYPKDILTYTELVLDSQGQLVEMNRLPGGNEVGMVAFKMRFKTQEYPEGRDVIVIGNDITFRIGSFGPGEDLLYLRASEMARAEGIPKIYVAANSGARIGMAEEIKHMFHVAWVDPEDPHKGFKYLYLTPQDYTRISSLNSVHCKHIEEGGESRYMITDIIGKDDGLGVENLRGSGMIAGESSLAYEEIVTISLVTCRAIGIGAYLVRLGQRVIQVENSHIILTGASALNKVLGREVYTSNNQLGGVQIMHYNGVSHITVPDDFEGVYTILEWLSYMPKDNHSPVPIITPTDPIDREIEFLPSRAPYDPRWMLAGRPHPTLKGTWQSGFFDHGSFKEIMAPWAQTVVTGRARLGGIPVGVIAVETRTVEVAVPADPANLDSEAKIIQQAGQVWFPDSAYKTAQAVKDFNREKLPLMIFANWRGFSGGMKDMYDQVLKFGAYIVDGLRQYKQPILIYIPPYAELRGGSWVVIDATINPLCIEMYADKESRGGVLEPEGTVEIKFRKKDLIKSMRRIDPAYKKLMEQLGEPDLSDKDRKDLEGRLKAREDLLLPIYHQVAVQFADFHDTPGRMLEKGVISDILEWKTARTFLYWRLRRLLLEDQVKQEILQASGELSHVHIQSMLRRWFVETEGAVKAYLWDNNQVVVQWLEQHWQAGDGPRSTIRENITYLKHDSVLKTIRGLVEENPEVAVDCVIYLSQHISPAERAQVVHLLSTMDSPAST
Description: The detailed procedure is as follows. […] 10 μL ADP glo reagent was added. […] 20 μL kinase detection reagent was added.

Diplodia maydis (Dm) = experiment: Growth inhibition assay of fungal pathogens, Dm; format: cell-based; settings: Stenocarpella maydis, 48 h, growth inhibition at 48 hours vs 2% DMSO control
Description: as §2, §3, §4, §5

[4] = tested on: Phytophthora capsici (Pc); experiment: Growth inhibition assay of fungal pathogens, Pc; format: cell-based; settings: 48 h
Description: as §2, §3, §4, §5

fungal (fACC2) = fungal (fACC2) (UniProt Q00955); settings: read-out: fACC2 (in vitro ACC2 Inhibition Assay, IC50), ADP-Glo, 5 nM ACC2, 20 μM ATP, 20 μM acetyl-CoA
fungal (fACC2), sequence (Q00955 whole entry): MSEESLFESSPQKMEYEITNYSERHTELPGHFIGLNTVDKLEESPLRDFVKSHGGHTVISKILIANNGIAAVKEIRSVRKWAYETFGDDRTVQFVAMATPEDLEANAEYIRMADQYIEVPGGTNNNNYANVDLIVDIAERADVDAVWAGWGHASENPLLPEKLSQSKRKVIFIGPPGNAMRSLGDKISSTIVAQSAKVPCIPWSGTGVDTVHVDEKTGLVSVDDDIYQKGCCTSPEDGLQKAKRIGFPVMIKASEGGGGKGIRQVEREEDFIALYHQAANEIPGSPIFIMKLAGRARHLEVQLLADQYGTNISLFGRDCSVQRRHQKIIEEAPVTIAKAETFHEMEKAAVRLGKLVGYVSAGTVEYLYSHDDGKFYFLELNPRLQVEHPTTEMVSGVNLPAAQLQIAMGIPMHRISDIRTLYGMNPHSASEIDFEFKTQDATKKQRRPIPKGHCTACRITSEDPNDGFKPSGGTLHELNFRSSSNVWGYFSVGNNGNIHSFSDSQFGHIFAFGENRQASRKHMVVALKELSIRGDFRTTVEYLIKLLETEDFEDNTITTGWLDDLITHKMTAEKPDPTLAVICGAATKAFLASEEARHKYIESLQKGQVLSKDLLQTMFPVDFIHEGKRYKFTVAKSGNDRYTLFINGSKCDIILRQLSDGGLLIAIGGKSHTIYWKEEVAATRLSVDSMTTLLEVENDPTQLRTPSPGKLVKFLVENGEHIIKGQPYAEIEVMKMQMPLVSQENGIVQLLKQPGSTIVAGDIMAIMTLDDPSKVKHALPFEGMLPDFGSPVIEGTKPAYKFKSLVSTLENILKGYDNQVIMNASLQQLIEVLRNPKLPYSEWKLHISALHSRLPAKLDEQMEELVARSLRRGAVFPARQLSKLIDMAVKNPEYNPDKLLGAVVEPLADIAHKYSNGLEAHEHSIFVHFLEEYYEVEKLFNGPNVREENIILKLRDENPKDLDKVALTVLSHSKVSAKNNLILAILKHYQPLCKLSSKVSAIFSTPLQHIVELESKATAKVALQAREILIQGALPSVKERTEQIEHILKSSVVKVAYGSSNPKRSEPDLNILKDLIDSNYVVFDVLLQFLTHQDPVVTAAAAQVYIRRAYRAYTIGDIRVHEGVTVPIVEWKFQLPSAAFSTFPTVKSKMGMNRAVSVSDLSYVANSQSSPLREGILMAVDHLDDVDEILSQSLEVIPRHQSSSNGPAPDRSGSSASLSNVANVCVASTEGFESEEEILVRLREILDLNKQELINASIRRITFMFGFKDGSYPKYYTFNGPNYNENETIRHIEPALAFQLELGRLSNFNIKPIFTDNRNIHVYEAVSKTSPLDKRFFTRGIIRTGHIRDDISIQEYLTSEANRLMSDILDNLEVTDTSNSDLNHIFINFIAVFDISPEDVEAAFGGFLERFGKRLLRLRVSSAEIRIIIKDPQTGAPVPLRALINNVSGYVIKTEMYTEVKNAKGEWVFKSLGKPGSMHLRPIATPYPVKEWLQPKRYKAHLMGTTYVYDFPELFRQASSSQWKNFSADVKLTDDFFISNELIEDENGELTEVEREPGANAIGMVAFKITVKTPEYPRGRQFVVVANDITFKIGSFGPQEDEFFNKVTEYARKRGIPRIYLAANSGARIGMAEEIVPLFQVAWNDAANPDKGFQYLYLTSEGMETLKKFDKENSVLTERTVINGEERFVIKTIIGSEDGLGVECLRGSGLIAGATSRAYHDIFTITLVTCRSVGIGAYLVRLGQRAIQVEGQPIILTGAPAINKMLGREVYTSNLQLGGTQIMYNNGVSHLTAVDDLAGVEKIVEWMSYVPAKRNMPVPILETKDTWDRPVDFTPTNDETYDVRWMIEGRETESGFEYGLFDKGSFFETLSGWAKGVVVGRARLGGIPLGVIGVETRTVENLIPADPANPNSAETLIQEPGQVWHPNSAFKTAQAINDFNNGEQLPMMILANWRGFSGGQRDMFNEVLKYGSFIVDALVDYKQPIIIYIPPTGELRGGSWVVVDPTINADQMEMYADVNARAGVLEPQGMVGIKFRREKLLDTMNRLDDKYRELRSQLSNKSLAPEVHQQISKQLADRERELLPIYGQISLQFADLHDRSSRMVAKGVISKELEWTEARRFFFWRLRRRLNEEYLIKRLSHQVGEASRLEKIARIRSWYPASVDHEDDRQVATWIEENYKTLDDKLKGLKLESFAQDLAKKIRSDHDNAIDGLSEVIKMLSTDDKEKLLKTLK

Rhizoctonia solani (Rs) = experiment: Growth inhibition assay of fungal pathogens, Rs; format: cell-based; settings: 48 h
C. albicans = experiment: Antifungal Activity Assay (broth microtiter MIC), C. albicans; format: cell-based, Candida albicans; settings: Candida albicans, ATCC90028, 48 h
Method in brief: as §1

C. krusei = experiment: Antifungal Activity Assay (broth microtiter MIC), C. krusei; format: cell-based, Candida krusei; settings: Pichia kudriavzevii, ATCC6258, 48 h
Method in brief: as §1

Botrtyis cinerea (Bc) = experiment: Growth inhibition assay of fungal pathogens, Bc; format: cell-based; settings: 48 h, growth inhibition at 48 hours vs 2% DMSO control
Description: as §2, §3, §4, §5

[5] = Table 3a, ATCC 22019, 3 replicates, MIC recorded at 48 h, read-out: MIC, C. parapsilosis ATCC 22019
[6] = Table 3b (additional results), ATCC 22019, 3 replicates, MIC recorded at 48 h, read-out: MIC, C. parapsilosis ATCC 22019
[7] = growth inhibition at 48 hours vs 2% DMSO control, read-out: Concentration at 90% Inhibition Fv
[8] = Fusarium moniliforme, growth inhibition at 48 hours vs 2% DMSO control
[9] = Septoria tritici, read-out: Concentration at 90% Inhibition St
[10] = Collectotrichum graminicola, read-out: Concentration at 90% Inhibition Cg
[11] = Diplodia maydis, read-out: Concentration at 90% Inhibition Dm
[12] = growth inhibition at 48 hours vs 2% DMSO control, read-out: Concentration at 90% Inhibition Pc
[13] = mycelial plugs, growth inhibition at 48 hours vs 2% DMSO control, read-out: Concentration at 90% Inhibition Rs
[14] = Table 3a, ATCC 90028, 3 replicates, MIC recorded at 48 h, read-out: MIC, C. albicans ATCC 90028
[15] = Table 3b (additional results), ATCC 90028, 3 replicates, MIC recorded at 48 h, read-out: MIC, C. albicans ATCC 90028
[16] = Table 3a, ATCC 6258, 3 replicates, MIC recorded at 48 h, read-out: MIC, C. krusei ATCC 6258
[17] = Table 3b (additional results), ATCC 6258, 3 replicates, MIC recorded at 48 h, read-out: MIC, C. krusei ATCC 6258
[18] = Botrtyis cinerea, read-out: Concentration at 90% Inhibition Bc

Structure (SMILES) | MIC (C. parapsilosis; [5]) [µg/mL] | MIC (C. parapsilosis; [6]) [µg/mL] | IC90 [1, 7] [µg/mL] | IC90 [2, 8] [µg/mL] | IC90 (Septoria tritici (St); [9]) [µg/mL] | IC90 [3, 10] [µg/mL] | pIC50 (human (hACC2); Table 2a) | pIC50 (human (hACC2); Table 2b, additional results) | IC90 (Diplodia maydis (Dm); [11]) [µg/mL] | IC90 [4, 12] [µg/mL] | pIC50 (fungal (fACC2); Table 2a) | pIC50 (fungal (fACC2); Table 2b, additional results) | IC90 (Rhizoctonia solani (Rs); [13]) [µg/mL] | MIC (C. albicans; [14]) [µg/mL] | MIC (C. albicans; [15]) [µg/mL] | MIC (C. krusei; [16]) [µg/mL] | MIC (C. krusei; [17]) [µg/mL] | IC90 (Botrtyis cinerea (Bc); [18]) [µg/mL] | also measured
CCOC(=O)C(C)(C)n1c(=O)c2c(C)c(-n3nccn3)sc2n(C[C@H](OCCO)c2cc(F)ccc2OC)c1=O [Compound I-74, Ethyl (R)-2-(1-(2-(5-fluoro-2-methoxyphenyl)-2-(2-hydroxyethoxy)ethyl)-5-methyl-2,4-dioxo-6-(2H-1,2,3-triazol-2-yl)-1,4-dihydro-thieno[2,3-d]pyrimidin-3(2H)-yl)-2-methylpropanoate] | 2.1 to 4 (≈ 3.65 to 6.95 µM) | 2.01 to 4 (≈ 3.49 to 6.95 µM) | 0.4 (≈ 0.695 µM) | 0.08 (≈ 0.139 µM) | 10 (≈ 17.4 µM) | 0.4 (≈ 0.695 µM) | 8.00 to 8.30 | 8.00 to 8.30 | 0.4 (≈ 0.695 µM) | > 50 | 8.30 to 9.00 | 8.30 to 9.00 | 0.08 (≈ 0.139 µM) | 2.1 to 4 (≈ 3.65 to 6.95 µM) | 2.01 to 4 (≈ 3.49 to 6.95 µM) | 0.25 to 1 (≈ 0.434 to 1.74 µM) | 1.01 to 2 (≈ 1.75 to 3.47 µM) | 0.08 (≈ 0.139 µM) | 
CCc1ccc(F)cc1[C@H](Cn1c(=O)n(C(C)(C)C(=O)NC(C)C)c(=O)c2c(C)c(-n3nccn3)sc21)OCCO [Compound I-124] | 0.25 to 1 (≈ 0.426 to 1.7 µM) | 2.01 to 4 (≈ 3.43 to 6.82 µM) | 0.08 (≈ 0.136 µM) | 0.08 (≈ 0.136 µM) | 2 (≈ 3.41 µM) | 0.08 (≈ 0.136 µM) | 8.30 to 9.00 | 8.30 to 9.00 | 0.4 (≈ 0.682 µM) | 10 (≈ 17 µM) | 9.00 to 9.40 | 9.00 to 9.52 | 0.08 (≈ 0.136 µM) | 0.25 to 1 (≈ 0.426 to 1.7 µM) | 2.01 to 4 (≈ 3.43 to 6.82 µM) | 0.06 to 0.24 (≈ 0.102 to 0.409 µM) | 2.01 to 4 (≈ 3.43 to 6.82 µM) | 0.4 (≈ 0.682 µM) | 
CCc1ccc(F)cc1[C@H](Cn1c(=O)n(C(C)(C)C(=O)NC(C)C)c(=O)c2c(C)c(-n3nccn3)sc21)OCCOC [Compound I-126] | 1.1 to 2 (≈ 1.83 to 3.33 µM) | 2.01 to 4 (≈ 3.35 to 6.66 µM) | 0.4 (≈ 0.666 µM) | 0.08 (≈ 0.133 µM) | 10 (≈ 16.6 µM) | 0.4 (≈ 0.666 µM) | 8.00 to 8.30 | 8.00 to 8.30 | 2 (≈ 3.33 µM) | > 50 | 8.30 to 9.00 | 8.30 to 9.00 | 2 (≈ 3.33 µM) | 1.1 to 2 (≈ 1.83 to 3.33 µM) | > 4.01 | 0.25 to 1 (≈ 0.416 to 1.66 µM) | > 4.01 | 0.4 (≈ 0.666 µM) | 
COc1ccccc1[C@H](Cn1c(=O)n(C(C)(C)C(=O)NC(C)C)c(=O)c2c(C)c(-n3nccn3)sc21)OCCC#N [Compound I-136, 2-[1-[(2R)-2-(2-cyanoethoxy)-2-(2-methoxyphenyl)ethyl]-5-methyl-2,4-dioxo-6-(2H-1,2,3-triazol-2-yl)-1H,2H,3H,4H-thieno[2,3-d]pyrimidin-3-yl]-2-methyl-N-(propan-2-yl)propanamide] |  |  |  |  |  |  | 8.00 to 8.30 | 8.00 to 8.30 |  |  | 8.30 to 9.00 | 9.00 to 9.52 |  |  |  |  |  |  | MIC (C. parapsilosis; read-out: MIC, C. parapsilosis ATCC 22019, Table 3a, 3 replicates, MIC recorded at 48 h): 0.25 to 1 µg/mL (≈ 0.431 to 1.73 µM); MIC (C. parapsilosis; read-out: MIC, C. parapsilosis ATCC 22019, Table 3b (additional results), 3 replicates, MIC recorded at 48 h): 0.25 to 1 µg/mL (≈ 0.431 to 1.73 µM); IC90 ([1]; read-out: Concentration at 90% Inhibition Fv, Fusarium virguliforme, growth inhibition at 48 hours vs 2% DMSO control): 0.4 µg/mL (≈ 0.69 µM); IC90 [2]: 0.08 µg/mL (≈ 0.138 µM); IC90 (Septoria tritici (St); read-out: Concentration at 90% Inhibition St, Septoria tritici): 2 µg/mL (≈ 3.45 µM); IC90 ([3]; read-out: Concentration at 90% Inhibition Cg, Collectotrichum graminicola): 0.08 µg/mL (≈ 0.138 µM); IC90 (Diplodia maydis (Dm); read-out: Concentration at 90% Inhibition Dm, Diplodia maydis): 0.08 µg/mL (≈ 0.138 µM); IC90 ([4]; read-out: Concentration at 90% Inhibition Pc, Phytophthora capsici, growth inhibition at 48 hours vs 2% DMSO control): 2 µg/mL (≈ 3.45 µM); IC90 (Rhizoctonia solani (Rs); read-out: Concentration at 90% Inhibition Rs, Rhizoctonia solani, mycelial plugs, growth inhibition at 48 hours vs 2% DMSO control): 0.08 µg/mL (≈ 0.138 µM); MIC (C. albicans; read-out: MIC, C. albicans ATCC 90028, Table 3a, 3 replicates, MIC recorded at 48 h): 0.25 to 1 µg/mL (≈ 0.431 to 1.73 µM); MIC (C. albicans; read-out: MIC, C. albicans ATCC 90028, Table 3b (additional results), 3 replicates, MIC recorded at 48 h): 1.01 to 2 µg/mL (≈ 1.74 to 3.45 µM); MIC (C. krusei; read-out: MIC, C. krusei ATCC 6258, Table 3a, 3 replicates, MIC recorded at 48 h): 0.06 to 0.24 µg/mL (≈ 0.104 to 0.414 µM); MIC (C. krusei; read-out: MIC, C. krusei ATCC 6258, Table 3b (additional results), 3 replicates, MIC recorded at 48 h): 0.25 to 1 µg/mL (≈ 0.431 to 1.73 µM); IC90 (Botrtyis cinerea (Bc); read-out: Concentration at 90% Inhibition Bc, Botrtyis cinerea): 0.08 µg/mL (≈ 0.138 µM)
